The values below come from ChEMBL document CHEMBL5325414, “Novel neuroprotective pyromeconic acid derivatives with concurrent anti-Aβ deposition, anti-inflammatory, and anti-oxidation properties for treatment of Alzheimer's disease” (Eur J Med Chem, 2023).

Experiment [1] can be described thus: Antioxidant activity by measuring oxygen radical absorbance capacity-fluorescein values. The class given is functional.
Experiment [2] deals with T1, Amyloid-beta precursor protein (Homo sapiens, UniProt P05067). Briefly: Inhibition of amyloid beta (1 to 42) (unknown origin) self aggregation assessed as disaggregation relative to control. More on the design: concentration or dose not given beside the values. As to conditions: concentration not given here.
T1 sequence (P05067 whole entry): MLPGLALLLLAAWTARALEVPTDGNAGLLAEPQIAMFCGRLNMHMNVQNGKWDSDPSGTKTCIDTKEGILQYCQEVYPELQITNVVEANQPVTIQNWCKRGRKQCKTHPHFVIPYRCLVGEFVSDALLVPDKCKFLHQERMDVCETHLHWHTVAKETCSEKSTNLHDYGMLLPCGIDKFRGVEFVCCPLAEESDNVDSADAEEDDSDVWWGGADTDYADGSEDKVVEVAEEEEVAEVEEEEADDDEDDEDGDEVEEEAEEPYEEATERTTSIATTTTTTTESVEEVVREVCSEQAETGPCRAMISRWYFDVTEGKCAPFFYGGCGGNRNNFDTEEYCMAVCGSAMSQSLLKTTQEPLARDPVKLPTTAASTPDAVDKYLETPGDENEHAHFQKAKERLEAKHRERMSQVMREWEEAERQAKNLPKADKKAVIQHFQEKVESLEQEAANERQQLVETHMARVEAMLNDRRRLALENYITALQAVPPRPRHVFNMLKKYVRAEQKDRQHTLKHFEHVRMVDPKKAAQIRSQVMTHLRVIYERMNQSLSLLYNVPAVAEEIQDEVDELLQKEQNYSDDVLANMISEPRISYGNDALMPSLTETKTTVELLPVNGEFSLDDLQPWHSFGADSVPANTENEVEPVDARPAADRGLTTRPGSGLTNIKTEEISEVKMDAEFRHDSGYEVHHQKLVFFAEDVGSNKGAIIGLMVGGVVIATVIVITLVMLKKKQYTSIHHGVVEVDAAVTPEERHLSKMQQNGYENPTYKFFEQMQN
For a further experiment, the system named is BV-2. Briefly: Antiinflammatory activity in LPS induced mouse BV-2 cells decrease in release of […] at 5 uM by […] (reference value: 100%). Type of experiment: functional.
The target of experiment [3] is T1, Amyloid-beta precursor protein. Briefly: Inhibition of amyloid beta (1 to 42) (unknown origin) self aggregation assessed as disaggregation.
The target is the same in experiment [4]. Briefly: Inhibition of amyloid beta (1 to 42) (unknown origin) self aggregation at 50 uM relative to control.
Experiment [5] shares this target. Briefly: Inhibition of amyloid beta (1 to 42) (unknown origin) self aggregation.

pIC50: −log10 of the molar value.

Broadly, the inhibition is the drop in the measured response relative to a control, in per cent. The term pIC50 denotes the negative decadic logarithm of the IC50, by convention in mol/L. In experiment [1], `O=c1ccoc(/C=C/c2ccc(N3CCCCC3)cc2)c1O` gave an Activity index of 2.21. Besides, the inhibition was determined as 60.5% in experiment [2] and 59.6% in experiment [4]. Also, the “Nitric oxide release (% of LPS control)” value in the experiment with BV-2 amounted to 100.49%. For the same compound, the negative-log IC50 (pIC50) is 4.57 in experiment [3] and 4.48 in experiment [5].
As to `O=c1ccoc(/C=C/c2cccc(Cl)c2)c1O`, in experiment [1], the Activity index turned out to be 1.21. Besides, the inhibition was found to be 28.2% in experiment [2] and 23.2% in experiment [4]. Besides, the “Nitric oxide release (% of LPS control)” value in the experiment on BV-2 is recorded as 88.17%.
In experiment [1], `COc1ccc(/C=C/c2occc(=O)c2O)cc1O` yielded an Activity index of 1.62. For the same compound, the values for the inhibition in experiment [2] and in experiment [4] were 48.9% and 57.4%, respectively. The “Nitric oxide release (% of LPS control)” value in the experiment with BV-2 was 90.08%. The pIC50 in experiment [3] and in experiment [5] was 4.36 throughout.
As to `Oc1ccc(/C=C/c2cc(O)cc(O)c2)cc1` [RESVERATROL], in the experiment on BV-2, the “Nitric oxide release (% of LPS control)” value amounted to 86.97%. Further, the inhibition in experiment [4] came out at 73.2%.
In the case of `N#Cc1ccc(/C=C/c2occc(=O)c2O)cc1`, the Activity index in experiment [1] was determined as 1.9. Further, the inhibition in experiment [2] turned out to be 17%; in experiment [4], 16.8%. In the experiment on BV-2, the “Nitric oxide release (% of LPS control)” value is listed as 88%.
The corresponding values for `COc1ccc(/C=C/c2occc(=O)c2O)cc1` are 0.75, 39%, 34% and 91.49%.
In experiment [1], `O=c1ccocc1O` came in with an Activity index of 1.75. Further, the “Nitric oxide release (% of LPS control)” value in the experiment with BV-2 was found to be 93.85%.
For the compound `COc1cc(/C=C/c2occc(=O)c2O)ccc1O`, the Activity index in experiment [1] was determined as 1.96. Further, the values for the inhibition in experiment [2] and in experiment [4] were 42.9% and 48.5%, respectively. Further, the “Nitric oxide release (% of LPS control)” value in the experiment with BV-2 came to 90.67%.
`COC(=O)c1ccc(/C=C/c2occc(=O)c2O)cc1` returned an Activity index in experiment [1] of 0.25. Moreover, the figures for the inhibition in experiment [2] and in experiment [4] were 27.6% and 33.7%, respectively. The “Nitric oxide release (% of LPS control)” value in the experiment with BV-2 was 71.82%.
For `COc1ccccc1/C=C/c1occc(=O)c1O`, in that order: 0.79, 30.9%, 23.5% and 77.3%.
The compound `CN(C)c1ccc(/C=C/c2occc(=O)c2O)cc1` returned an Activity index in experiment [1] of 0.87. For the same compound, the inhibition in experiment [2] is 47.6%; in experiment [4], 53.7%. The “Nitric oxide release (% of LPS control)” value in the experiment on BV-2 was 92.3%. Moreover, the pIC50 in experiment [3] is 4.37; in experiment [5] it was 4.33.
Turning to `O=c1ccoc(/C=C/c2ccc([N+](=O)[O-])cc2)c1O`, the Activity index in experiment [1] worked out at 0.79. Besides, the inhibition stood at 62.8% in experiment [2] and 56.8% in experiment [4]. Also, the “Nitric oxide release (% of LPS control)” value in the experiment on BV-2 turned out to be 88.99%. In addition, the negative logarithm of the IC50 (pIC50) was 4.58 in experiment [3] and 4.42 in experiment [5].
Turning to `O=c1ccoc(/C=C/c2ccccc2)c1O`, the Activity index in experiment [1] turned out to be 0.52. For the same compound, the inhibition in experiment [2] was found to be 8.21%; in experiment [4], 7.59%. The “Nitric oxide release (% of LPS control)” value in the experiment on BV-2 was 78.21%.
The corresponding values for `O=c1ccoc(/C=C/c2ccc(O)cc2)c1O` are 2.79, 29.6%, 36.7% and 86.81%.
The corresponding values for `O=c1ccoc(/C=C/c2ccc(-c3ccccc3)cc2)c1O` are 0.4, 46.7%, 52% and 87.38%.
For `COc1cccc(/C=C/c2occc(=O)c2O)c1`, in that order: 0.8, 42.8%, 13.6% and 72.79%.
In experiment [1], `O=c1ccoc(/C=C/c2cccc(F)c2)c1O` registered an Activity index of 1.55. For the same compound, the inhibition in experiment [2] worked out at 18.5%; in experiment [4], 24.2%. Also, in the experiment on BV-2, the “Nitric oxide release (% of LPS control)” value worked out at 71.55%.
For the compound `O=c1ccoc(/C=C/c2ccc(N3CCSCC3)cc2)c1O`, the Activity index in experiment [1] stood at 1.48. The inhibition was 62.8% in experiment [2] and 53.9% in experiment [4]. Besides, the “Nitric oxide release (% of LPS control)” value in the experiment with BV-2 came to 98.13%. Moreover, the pIC50 in experiment [3] was 4.55; in experiment [5], 4.33.
Take `O=c1ccoc(/C=C/c2ccc(F)c(O)c2)c1O`: the Activity index in experiment [1] was found to be 3.19. In addition, the inhibition in experiment [2] came to 24%; in experiment [4] it was 23.8%. The “Nitric oxide release (% of LPS control)” value with BV-2 turned out to be 93.87%.
The corresponding values for `O=c1ccoc(/C=C/c2ccc(F)cc2)c1O` are 1.13, 14.8%, 8.6% and 88.36%.
The corresponding values for `Cc1ccc(/C=C/c2occc(=O)c2O)cc1` are 0.32, 15.1%, 28.6% and 85.2%.
In the case of `Cc1c(C)c2c(c(C)c1O)CCC(C)(C(=O)O)O2` (stereo not drawn), the Activity index in experiment [1] stood at 1.
Regarding `CC(C)(C)c1ccc(/C=C/c2occc(=O)c2O)cc1`, the Activity index in experiment [1] worked out at 0.07. Further, the figures for the inhibition in experiment [2] and in experiment [4] were 31.6% and 37.7%, respectively. Further, the “Nitric oxide release (% of LPS control)” value in the experiment with BV-2 stood at 94.03%.
For `O=c1ccoc(/C=C/c2ccc(O)c(F)c2)c1O`, in that order: 2.78, 32.2%, 36.1% and 86.66%.
For `O=c1ccoc(/C=C/c2ccc3ccccc3c2)c1O`, in that order: 1.38, 45.9%, 50.6% and 102.37%.
The corresponding values for `O=c1ccoc(/C=C/c2ccccc2Cl)c1O` are 1.13, 19.2%, 27.7% and 54.58%.
In the case of `CN1CCN(c2ccc(/C=C/c3occc(=O)c3O)cc2)CC1`, the Activity index in experiment [1] was found to be 2.33. Also, the inhibition was determined as 56.1% in experiment [2] and 30.6% in experiment [4]. In addition, in the experiment on BV-2, the “Nitric oxide release (% of LPS control)” value was found to be 96.04%.
For the compound `O=c1ccoc(/C=C/c2ccc(N3CCOCC3)cc2)c1O`, the Activity index in experiment [1] was found to be 2.25. Further, the results for the inhibition in experiment [2] and in experiment [4] were 65.8% and 50.4%, respectively. The “Nitric oxide release (% of LPS control)” value in the experiment with BV-2 is 100.11%. For the same compound, the values for the negative logarithm of the IC50 (pIC50) in experiment [3] and in experiment [5] were 4.62 and 4.31, respectively.
In experiment [1], `COc1ccc(/C=C/c2occc(=O)c2O)cc1OC` came in with an Activity index of 1.73. The inhibition in experiment [2] worked out at 20.6%; in experiment [4] it was 10.4%. For the same compound, the “Nitric oxide release (% of LPS control)” value in the experiment with BV-2 came to 97.14%.
Turning to `O=c1ccoc(/C=C/c2ccccc2F)c1O`, the Activity index in experiment [1] was 1.49. Further, the inhibition came out at 12.6% in experiment [2] and 19.9% in experiment [4]. Moreover, in the experiment on BV-2, the “Nitric oxide release (% of LPS control)” value is 56.97%.
`O=c1ccoc(/C=C/c2ccc(Cl)cc2)c1O`: the Activity index in experiment [1] stood at 1.02. For the same compound, the inhibition in experiment [2] worked out at 26.9%; in experiment [4] it was 30.4%. Moreover, the “Nitric oxide release (% of LPS control)” value with BV-2 amounted to 97.73%.
The corresponding values for `O=c1ccoc(/C=C/c2ccc(C(F)(F)F)cc2)c1O` are 0.12, 25.9%, 30.5% and 88.82%.
